Test results as given in ChEMBL document CHEMBL3588832, “The biology and synthesis of α-hydroxytropolones” (Medchemcomm, 2014).
In brackets after ≈: the same amount, converted by molar mass.

Key:
Poria = assay: Antifungal activity against Poria monticola; type: functional
[1] = Antifungal activity against Polyporus versicolor; type: functional
[2] = Antifungal activity against Stereum sanguinolentum; type: functional
[3] = Antifungal activity against Phellinus weirii; type: functional
Coniophora puteana = assay: Antifungal activity against Coniophora puteana; type: functional
Hepatitis B virus [4] = assay: Antiviral activity against HBV assessed as inhibition of viral replication in cell based assay; type: functional, organism-based
[5] = Inhibition of human ribonuclease H
[6] = Inhibition of XMRV RNaseH; set-up: species or system Xenotropic MuLV-related virus
[7] = Inhibition of hepatitis B virus genotype D RNaseH
[8] = Inhibition of HIV2 reverse transcriptase RNase H; set-up: species or system Human immunodeficiency virus 2
Escherichia coli [9] = assay: Inhibition of Escherichia coli W677/JR76.2 2'-O-adenylyltransferase at 730 uM using aminoglycoside and [14C]ATP incubated for 15 mins by liquid scintillation counting based radiochemical assay
[10] = Toxicity in mouse assessed as induction of mortality after 48 hrs; type: organism-based; conditions: in vivo
[11] = Toxicity in mouse assessed as induction of mortality after 72 hrs; type: organism-based; conditions: in vivo
Escherichia coli [12] = assay: Inhibition of Escherichia coli W677/JR76.2 2'-O-adenylyltransferase at 7.3 uM using aminoglycoside and [14C]ATP incubated for 15 mins by liquid scintillation counting based radiochemical assay
[13] = Inhibition of hepatitis B virus genotype H RNaseH
[14] = Inhibition of HIV1 reverse transcriptase RNase H; set-up: species or system Human immunodeficiency virus 1
[15] = Inhibition of HIV reverse transcriptase RNase H; set-up: species or system Human immunodeficiency virus
[16] = Inhibition of Escherichia coli ribonuclease H
Hepatitis B virus [17] = assay: Antiviral activity against HBV assessed as inhibition of viral replication at 10 uM in cell based assay; type: functional
Plasmodium falciparum [18] = assay: Antimalarial activity against chloroquine-resistant Plasmodium falciparum K1; type: functional, organism-based
B16 [19] = assay: Cytotoxicity against mouse B16 cells; type: functional, cell-based
[20] = Inhibition of HIV reverse transcriptase polymerase; set-up: species or system Human immunodeficiency virus
[21] = Inhibition of HIV integrase strand transfer activity; set-up: species or system Human immunodeficiency virus
[22] = Inhibition of HIV integrase 3' processing activity; set-up: species or system Human immunodeficiency virus
[23] = Inhibition of phosphotidylcholine-preferring phospholipase C (unknown origin) at pH 7.3; set-up: species or system Homo sapiens
[24] = Inhibition of phosphotidylcholine-preferring phospholipase C (unknown origin) at pH 9.5; set-up: species or system Homo sapiens
[25] = molecular target: T1, Dopamine beta-hydroxylase (Homo sapiens, UniProt P09172); assay: Inhibition of dopamine beta-oxygenase (unknown origin)
T1 sequence (P09172 whole entry): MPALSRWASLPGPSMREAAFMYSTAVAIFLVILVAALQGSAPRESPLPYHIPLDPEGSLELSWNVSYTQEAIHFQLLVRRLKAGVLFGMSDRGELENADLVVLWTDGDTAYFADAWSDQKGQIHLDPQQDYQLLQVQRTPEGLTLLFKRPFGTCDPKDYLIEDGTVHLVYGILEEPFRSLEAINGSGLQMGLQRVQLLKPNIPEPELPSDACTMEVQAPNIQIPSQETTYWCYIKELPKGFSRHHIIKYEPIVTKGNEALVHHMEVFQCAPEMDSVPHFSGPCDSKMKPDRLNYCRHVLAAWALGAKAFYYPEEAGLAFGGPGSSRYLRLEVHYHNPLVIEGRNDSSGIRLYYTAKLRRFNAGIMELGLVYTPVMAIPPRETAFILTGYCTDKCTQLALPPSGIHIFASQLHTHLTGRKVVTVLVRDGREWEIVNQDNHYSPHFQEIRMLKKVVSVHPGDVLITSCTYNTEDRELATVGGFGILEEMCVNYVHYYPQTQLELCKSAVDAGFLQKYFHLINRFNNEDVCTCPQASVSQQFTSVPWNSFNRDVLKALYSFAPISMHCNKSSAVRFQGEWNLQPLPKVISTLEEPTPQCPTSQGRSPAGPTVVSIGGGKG

[26] = Inhibition of alkaline phosphatase (unknown origin); set-up: species or system Homo sapiens
[27] = Inhibition of inositol monophosphatase (unknown origin); set-up: species or system Homo sapiens
Plasmodium falciparum [28] = assay: Antimalarial activity against Plasmodium falciparum infected in mouse; type: functional
MRC5 = assay: Cytotoxicity against human MRC5 cells; type: functional, cell-based
Plasmodium falciparum [29] = assay: Antimalarial activity against Plasmodium falciparum FCR-3/Gambia; type: functional, organism-based
Escherichia coli [30] = assay: Inhibition of Escherichia coli W677/JR76.2 2'-O-adenylyltransferase at 5.5 uM using aminoglycoside and [14C]ATP incubated for 15 mins by liquid scintillation counting based radiochemical assay
Escherichia coli [31] = assay: Inhibition of Escherichia coli W677/JR76.2 2'-O-adenylyltransferase at 55 uM using aminoglycoside and [14C]ATP incubated for 15 mins by liquid scintillation counting based radiochemical assay
Aspergillus fumigatus = assay: Antifungal activity against Aspergillus fumigatus IAM2350; type: functional
Staphylococcus aureus = assay: Antibacterial activity against Staphylococcus aureus; type: functional
Escherichia coli [32] = assay: Inhibition of Escherichia coli W677/JR76.2 2'-O-adenylyltransferase at 550 uM using aminoglycoside and [14C]ATP incubated for 15 mins by liquid scintillation counting based radiochemical assay
Escherichia coli [33] = assay: Antibacterial activity against Escherichia coli NIHJ; type: functional
Pseudomonas aeruginosa = assay: Antibacterial activity against Pseudomonas aeruginosa; type: functional
Klebsiella pneumoniae = assay: Antibacterial activity against Klebsiella pneumoniae; type: functional
Micrococcus luteus = assay: Antibacterial activity against Micrococcus luteus; type: functional
B16 [34] = assay: Antitumor activity against mouse B16 cells implanted in mouse assessed as mouse survival at 1 mg/kg/day (reference value: 16 days); type: functional
B16 [35] = assay: Antitumor activity against mouse B16 cells implanted in mouse assessed as mouse survival at 2.5 mg/kg/day (reference value: 16 days); type: functional
B16 [36] = assay: Antitumor activity against mouse B16 cells implanted in mouse assessed as mouse survival at 1.3 mg/kg/day (reference value: 16 days); type: functional
B16 [37] = assay: Inhibition of RNA synthesis in mouse B16 cells; type: functional, cell-based
[38] = tested on: Human immunodeficiency virus 1; assay: Antiviral activity against HIV1 assessed as inhibition of viral replication in cell based assay; type: functional, organism-based
Escherichia coli [39] = assay: Inhibition of Escherichia coli W677/JR76.2 2'-O-adenylyltransferase at 650 uM using aminoglycoside and [14C]ATP incubated for 15 mins by liquid scintillation counting based radiochemical assay
Escherichia coli [40] = assay: Inhibition of Escherichia coli W677/JR76.2 2'-O-adenylyltransferase at 6.5 uM using aminoglycoside and [14C]ATP incubated for 15 mins by liquid scintillation counting based radiochemical assay
B16 [41] = assay: Inhibition of DNA synthesis in mouse B16 cells; type: functional, cell-based
B16 [42] = assay: Inhibition of protein synthesis in mouse B16 cells; type: functional, cell-based

CC(C)c1ccc(O)c(=O)cc1 [GAMMA-THUJAPLICIN]
MIC (Poria): 10 µM (≈ 1.64 µg/mL) | MIC [1]: 70 µM (≈ 11.5 µg/mL) | MIC [2]: 50 µM (≈ 8.21 µg/mL) | MIC [3]: 50 µM (≈ 8.21 µg/mL) | MIC (Coniophora puteana): 10 µM (≈ 1.64 µg/mL)

CC(C)c1ccc(O)c(=O)c(O)c1 [BETA-THUJAPLICINOL]
EC50 (Hepatitis B virus [4]): 5 µM | MIC (Poria): 10 µM (≈ 1.8 µg/mL) | IC50 [5]: 5.7 µM | MIC [1]: 800 µM (≈ 144 µg/mL) | IC50 [6]: 1.4 µM | MIC [2]: 330 µM (≈ 59.5 µg/mL) | IC50 [7]: 5.9 µM | IC50 [8]: 0.8 µM | inhibition (Escherichia coli [9]): 100% | MIC [3]: 100 µM (≈ 18 µg/mL) | LD50 at 48 h [10]: 175 mg/kg | LD50 at 72 h [11]: 155 mg/kg | inhibition (Escherichia coli [12]): 31% | MIC (Coniophora puteana): 10 µM (≈ 1.8 µg/mL) | IC50 [13]: 2.3 µM | IC50 [14]: 0.2 µM | IC50 [15]: 0.2 µM | IC50 [16]: 50 µM

CC(C)c1ccccc(=O)c1O [ALPHA-THUJAPLICIN]
IC50 [5]: 12 µM | IC50 [8]: 33 µM | IC50 [14]: 50 µM | IC50 [16]: > 100 µM

NCc1ccc(-c2ccc(Cc3cc(=O)n(O)c4ncccc34)cc2)cc1
inhibition at 10 µM (Hepatitis B virus [17]): 93% | IC50 [6]: 0.41 µM | IC50 [7]: 2.5 µM

COc1cc(C(=O)O)cc(O)c(OC)c1=O
IC50 (Plasmodium falciparum [18]): 3.7 µM

O=c1c(O)ccc(O)cc1O
IC50 (B16 [19]): 2.5 µM

O=c1c(O)c(O)ccc(-c2cccc([N+](=O)[O-])c2)c1O
IC50 [20]: 2.3 µM | IC50 [21]: 0.8 µM | IC50 [15]: 1.3 µM | IC50 [22]: 0.7 µM

O=C1C=CCN(O)C(=O)N1O
Ki [23]: 388 µM | Ki [24]: 53 µM

O=Cc1ccc(-c2ccc(O)c(=O)c(O)c2O)cc1
IC50 [20]: 0.6 µM | IC50 [21]: 1.2 µM | IC50 [15]: 12 µM | IC50 [22]: 0.6 µM

O=c1cccccc1O [TROPOLONE]
IC50 [25]: 2 µM | IC50 (Plasmodium falciparum [18]): > 100 µM | IC50 [26]: > 1000 µM | IC50 [5]: 3 µM | IC50 [27]: > 1000 µM | IC50 [8]: > 100 µM | IC50 [14]: > 100 µM | IC50 [16]: > 100 µM

O=C(O)c1cc(O)c(O)c(=O)c(O)c1
IC50 (Plasmodium falciparum [18]): 0.05 µM | IC50 [27]: 10 µM | ED50 (Plasmodium falciparum [28]): < 2 mg/kg | IC50 (MRC5): 360 µM | IC50 (Plasmodium falciparum [29]): 0.05 µM

CC(=O)Nc1ccc(-c2cc(-c3ccc(NC(C)=O)cc3)c(O)c(=O)c(O)c2O)cc1
IC50 [20]: 52 µM | IC50 [21]: 1.7 µM | IC50 [15]: 900 µM | IC50 [22]: 0.15 µM

CC(=O)Oc1cccc(OC(C)=O)c(=O)c1OC(C)=O
IC50 [20]: 30 µM | IC50 [15]: > 1000 µM | IC50 [22]: > 1000 µM

O=c1c(O)ccccc1O
Ki [23]: 16 µM | Ki [24]: 23 µM | IC50 [25]: 2 µM | IC50 (Plasmodium falciparum [18]): 6.4 µM | IC50 [26]: 15 µM | inhibition (Escherichia coli [30]): 8% | IC50 (B16 [19]): 2.2 µM | IC50 [27]: 75 µM | IC50 (MRC5): 1.7 µM | inhibition (Escherichia coli [31]): 78% | MIC (Aspergillus fumigatus): 730 µM (≈ 101 µg/mL) | MIC (Staphylococcus aureus): 90 µM (≈ 12.4 µg/mL) | inhibition (Escherichia coli [32]): 100% | IC50 (Plasmodium falciparum [29]): 8.7 µM | MIC (Escherichia coli [33]): 45 µM (≈ 6.22 µg/mL) | MIC (Pseudomonas aeruginosa): 700 µM (≈ 96.7 µg/mL) | MIC (Klebsiella pneumoniae): 360 µM (≈ 49.7 µg/mL) | MIC (Micrococcus luteus): 90 µM (≈ 12.4 µg/mL)

N#Cc1ccc(-c2ccc(O)c(=O)c(O)c2O)cc1
IC50 [27]: 4 µM

CO[C@@]12[C@H](COC(N)=O)C3=C(C(=O)C(C)=C(N)C3=O)N1C[C@@H]1N[C@@H]12 [MITOMYCIN]
MST (B16 [34]): 27 days

O=c1ccc(O)ccc1O
IC50 (B16 [19]): 13 µM

O=c1c(O)cccc(O)c1O
MST (B16 [35]): 12 days | IC50 [20]: 3.2 µM | IC50 [25]: 3 µM | MST (B16 [36]): 29 days | IC50 (B16 [37]): 90 µM | IC50 [26]: 60 µM | IC50 (B16 [19]): 0.26 µM | IC50 [38]: 0.3 µM | IC50 [27]: 8 µM | inhibition (Escherichia coli [39]): 54% | inhibition (Escherichia coli [40]): 2% | IC50 [21]: 11 µM | IC50 (B16 [41]): 60 µM | IC50 [15]: 20 µM | IC50 [22]: 40 µM | IC50 (B16 [42]): 70 µM

C[C@H]1[C@H](OC(=O)CCC(=O)O)O[C@@H]2O[C@@]3(C)CC[C@H]4[C@H](C)CC[C@@H]1[C@@]24OO3 [ARTESUNATE]
IC50 (Plasmodium falciparum [18]): 0.01 µM | ED50 (Plasmodium falciparum [28]): 1.7 mg/kg | IC50 (MRC5): 36 µM | IC50 (Plasmodium falciparum [29]): 0.0025 µM
